# Biological target: Melanin-concentrating hormone receptor 1 (Homo sapiens, UniProt Q99705)
# Assay: Antagonist activity at MCH1 receptor
# Assay type: functional
# Chain of Melanin-concentrating hormone receptor 1 (Q99705 whole entry): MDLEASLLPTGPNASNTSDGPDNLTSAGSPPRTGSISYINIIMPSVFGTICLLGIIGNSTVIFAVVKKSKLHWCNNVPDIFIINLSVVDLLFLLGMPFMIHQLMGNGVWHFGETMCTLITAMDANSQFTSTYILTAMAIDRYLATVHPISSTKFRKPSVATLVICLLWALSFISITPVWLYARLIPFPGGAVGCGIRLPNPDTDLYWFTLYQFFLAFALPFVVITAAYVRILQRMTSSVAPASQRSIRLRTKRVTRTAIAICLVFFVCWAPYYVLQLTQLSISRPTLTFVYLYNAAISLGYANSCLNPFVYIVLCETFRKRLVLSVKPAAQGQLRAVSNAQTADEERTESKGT
row,Structure (SMILES),Ki
1,CC(C)N(CCN(C(=O)Nc1ccc(F)c(Cl)c1)C1CC[C@]2(c3cccc(CN4CC[C@H](O)C4)c3)CC2C1)C(C)C (stereo partly drawn),21 nM
2,CC(C)N(CCN(C(=O)Nc1ccc(F)c(Cl)c1)C1CC[C@]2(c3cccc(CO)c3)CC2C1)C(C)C (stereo partly drawn),48 nM
3,N#Cc1cccc([C@]23CCC(N(CCN4CC[C@@H](O)C4)C(=O)Nc4cccc(F)c4)CC2C3)c1 (stereo partly drawn),20 nM
4,CS(=O)(=O)N1CCC(CCN(C(=O)Nc2ccc(F)c(C(F)(F)F)c2)C2CC[C@]3(c4cccc(C#N)c4)CC3C2)CC1 (stereo partly drawn),80 nM
5,CS(=O)(=O)N1CCC(CN(C(=O)Nc2cccc(F)c2)C2CC[C@]3(c4cccc(C#N)c4)CC3C2)CC1 (stereo partly drawn),9.71 nM
6,CC(C)N(CCN(C(=O)Nc1cc(Cl)nc(Cl)c1)C1CC[C@]2(c3cccc(C#N)c3)CC2C1)C(C)C (stereo partly drawn),2.4 nM
7,CC(C)N(CCO)CCN(C(=O)Nc1ccc(F)c(Cl)c1)C1CC[C@]2(c3cccc(C#N)c3)CC2C1 (stereo partly drawn),8.71 nM
8,CCO/N=C/c1cccc([C@]23CCC(N(CCN(C(C)C)C(C)C)C(=O)Nc4ccc(F)c(Cl)c4)CC2C3)c1 (stereo partly drawn),29 nM
9,CC(C)N(CCN(C(=O)Nc1ccc(F)cc1)C1CC[C@]2(c3cccc(C#N)c3)CC2C1)C(C)C (stereo partly drawn),10.4 nM
10,N#Cc1cccc([C@]23CCC(N(CCN4CC[C@@H](O)C4)C(=O)Nc4ccccc4)CC2C3)c1 (stereo partly drawn),132 nM
11,CS(=O)(=O)N1CCCCC1CN(C(=O)Nc1ccc(F)c(Cl)c1)C1CC[C@]2(c3cccc(C#N)c3)CC2C1 (stereo partly drawn),295 nM
12,CC(C)N(CCN(C(=O)Nc1cc(Cl)nc(Cl)c1)C1CC[C@]2(c3cccc(C#N)c3)CC2C1)[C@@H](C)CO (stereo partly drawn),1.6 nM
13,N#Cc1cccc([C@]23CCC(N(CCN4CC[C@@H](O)C4)C(=O)Nc4ccc(F)cc4)CC2C3)c1 (stereo partly drawn),54 nM
14,N#Cc1cccc([C@]23CCC(N(CCN4CCCC(O)C4)C(=O)Nc4ccc(F)c(Cl)c4)CC2C3)c1 (stereo partly drawn),22 nM
15,C[N+]1(CCN(C(=O)Nc2ccc(F)c(Cl)c2)C2CC[C@]3(c4cccc(C#N)c4)CC3C2)CCCC1 (stereo partly drawn),16 nM
16,N#Cc1cccc([C@]23CCC(N(CCN4CC[C@@H](O)C4)C(=O)Nc4ccc(OCOc5ccccc5)c(OCOc5ccccc5)c4)CC2C3)c1 (stereo partly drawn),134 nM
17,CC(C)NCCN(C(=O)Nc1cc(Cl)nc(Cl)c1)C1CC[C@]2(c3cccc(C#N)c3)CC2C1 (stereo partly drawn),1.9 nM
18,N#Cc1cccc([C@]23CCC(N(CCN4CC[C@@H](O)C4)C(=O)Nc4cc(F)cc(F)c4)CC2C3)c1 (stereo partly drawn),15 nM
19,N#Cc1cccc([C@]23CCC(N(CCN4CCCCCC4)C(=O)Nc4ccc(F)c(Cl)c4)CC2C3)c1 (stereo partly drawn),15 nM
20,CC(C)N(CCN(C(=O)Nc1ccc(F)c(Cl)c1)C1CC[C@]2(c3cccc(C#N)c3)CC2C1)C(C)C (stereo partly drawn),4.98 nM
21,CN(C)Cc1cccc([C@]23CCC(N(CC4CCN(S(C)(=O)=O)CC4)C(=O)Nc4cc(Cl)nc(Cl)c4)CC2C3)c1 (stereo partly drawn),3.3 nM

row,Structure (SMILES),Ki
1,CS(=O)(=O)N1CCC(CN(C(=O)Nc2ccc(F)c(F)c2)C2CC[C@]3(c4cccc(C#N)c4)CC3C2)CC1 (stereo partly drawn),5.4 nM
2,CC(C)N(CCN(C(=O)Nc1ccc(F)c(F)c1)C1CC[C@]2(c3cccc(Br)c3)CC2C1)C(C)C (stereo partly drawn),7.76 nM
3,CC(C)N(CCF)CCN(C(=O)Nc1ccc(F)c(Cl)c1)C1CC[C@]2(c3cccc(C#N)c3)CC2C1 (stereo partly drawn),12 nM
4,CC(C)N(CCN(C(=O)Nc1cccc(Cl)c1)C1CC[C@]2(c3cccc(C#N)c3)CC2C1)C(C)C (stereo partly drawn),6 nM
5,N#Cc1cccc([C@]23CCC(N(CCN4CC[C@@H](O)C4)C(=O)Nc4cccc(Cl)c4)CC2C3)c1 (stereo partly drawn),27 nM
6,CC1CCC(C2=CCC(N(CCN3CCCC3)C(=O)Nc3ccc(F)c(Cl)c3)CC2)S1 (stereo not drawn),84.9 nM
7,CC(C)N(CCN(C(=O)Nc1cccc([N+](=O)[O-])c1)C1CC[C@]2(c3cccc(C#N)c3)CC2C1)C(C)C (stereo partly drawn),2.7 nM
8,CCN(CC)Cc1cccc([C@]23CCC(N(CCN(C(C)C)C(C)C)C(=O)Nc4ccc(F)c(Cl)c4)CC2C3)c1 (stereo partly drawn),46 nM
9,CO/N=C/c1cccc([C@]23CCC(N(CCN(C(C)C)C(C)C)C(=O)Nc4ccc(F)c(Cl)c4)CC2C3)c1 (stereo partly drawn),4.1 nM
10,CC(C)N(CCN(C(=O)Nc1cccc(Br)c1)C1CC[C@]2(c3cccc(C#N)c3)CC2C1)C(C)C (stereo partly drawn),5.7 nM
11,CS(=O)(=O)N1CCC(CN(C(=O)Nc2cc(Cl)nc(Cl)c2)C2CC[C@]3(c4cccc(CN5CC[C@H](O)C5)c4)CC3C2)CC1 (stereo partly drawn),8.89 nM
12,CS(=O)(=O)N1CCC(CN(C(=O)Nc2ccc(F)c(Cl)c2)C2CC[C@]3(c4cccc(C#N)c4)CC3C2)CC1 (stereo partly drawn),7.19 nM
13,CC(=O)C1CCC(C2=CCC(N(CCN3CCCC3)C(=O)Nc3ccc(F)c(Cl)c3)CC2)S1 (stereo not drawn),31 nM
14,CS(=O)(=O)N1CCC(CN(C(=O)Nc2ccc(F)c(C(F)(F)F)c2)C2CC[C@]3(c4cccc(C#N)c4)CC3C2)CC1 (stereo partly drawn),26 nM
15,CC1CC[C@@H](CO)N1CCN(C(=O)Nc1cc(Cl)nc(Cl)c1)C1CC[C@]2(c3cccc(C#N)c3)CC2C1 (stereo partly drawn),1.2 nM
16,CC(C)N(CCN(C(=O)Nc1ccc(F)c(Cl)c1)C1CC[C@]2(c3cccc(CN(C)C)c3)CC2C1)C(C)C (stereo partly drawn),13 nM
17,N#Cc1cccc([C@]23CCC(N(CCN4CCOCC4)C(=O)Nc4ccc(F)c(Cl)c4)CC2C3)c1 (stereo partly drawn),11 nM
18,CC(C)N(CCO)CCN(C(=O)Nc1cc(Cl)nc(Cl)c1)C1CC[C@]2(c3cccc(C#N)c3)CC2C1 (stereo partly drawn),1.6 nM
19,COC1CCN(CCN(C(=O)Nc2ccc(F)c(Cl)c2)C2CC[C@]3(c4cccc(C#N)c4)CC3C2)CC1 (stereo partly drawn),15 nM
20,CCS(=O)(=O)N1CCC(CN(C(=O)Nc2ccc(F)c(F)c2)C2CC[C@]3(c4cccc(C#N)c4)CC3C2)CC1 (stereo partly drawn),21 nM
21,Cc1ccc(NC(=O)N(CCN2CC[C@@H](O)C2)C2CC[C@]3(c4cccc(C#N)c4)CC3C2)cc1F (stereo partly drawn),48 nM

row,Structure (SMILES),Ki
1,C[N+]1(CCN(C(=O)Nc2ccc(F)c(Cl)c2)C2CC[C@]3(c4cccc(C#N)c4)CC3C2)CCCCC1 (stereo partly drawn),15 nM
2,CNC(=O)N1CCC(CN(C(=O)Nc2ccc(F)c(C(F)(F)F)c2)C2CC[C@]3(c4cccc(C#N)c4)CC3C2)CC1 (stereo partly drawn),181 nM
3,N#Cc1cccc([C@]23CCC(N(CCN4CC[C@@H](O)C4)C(=O)Nc4ccc(F)c(F)c4)CC2C3)c1 (stereo partly drawn),20 nM
4,N#Cc1cccc([C@]23CCC(N(CCN4CC[C@@H](O)C4)C(=O)Nc4cccc([N+](=O)[O-])c4)CC2C3)c1 (stereo partly drawn),60 nM
5,CC(=O)NCc1cccc([C@]23CCC(N(CCN(C(C)C)C(C)C)C(=O)Nc4ccc(F)c(Cl)c4)CC2C3)c1 (stereo partly drawn),31 nM
6,N#Cc1cccc([C@]23CCC(N(CCN4CC[C@@H](O)C4)C(=O)Nc4cccc(Br)c4)CC2C3)c1 (stereo partly drawn),34 nM
7,N#Cc1cccc(NC(=O)N(CCN2CC[C@@H](O)C2)C2CC[C@]3(c4cccc(C#N)c4)CC3C2)c1 (stereo partly drawn),92 nM
8,COc1cccc(NC(=O)N(CCN2CC[C@@H](O)C2)C2CC[C@]3(c4cccc(C#N)c4)CC3C2)c1 (stereo partly drawn),373 nM
9,CC(C)N(CCN(C(=O)Nc1cccc(F)c1)C1CC[C@]2(c3cccc(C#N)c3)CC2C1)C(C)C (stereo partly drawn),2.1 nM
10,CC1CC[C@@H](CO)N1CCN(C(=O)Nc1ccc(F)c(Cl)c1)C1CC[C@]2(c3cccc(C#N)c3)CC2C1 (stereo partly drawn),11 nM
11,CC(C)N(CCN(C(=O)Nc1ccc(F)c(Cl)c1)C1CC[C@]2(c3cccc(CNS(C)(=O)=O)c3)CC2C1)C(C)C (stereo partly drawn),18 nM
12,N#Cc1cccc([C@]23CCC(N(CCNCCF)C(=O)Nc4cc(Cl)nc(Cl)c4)CC2C3)c1 (stereo partly drawn),4.4 nM
13,CC(=O)C1CCCN1CCN(C(=O)Nc1ccc(F)c(Cl)c1)C1CC[C@]2(c3cccc(C#N)c3)CC2C1 (stereo partly drawn),23 nM
14,CS(=O)(=O)N1CCCC(CN(C(=O)Nc2ccc(F)c(Cl)c2)C2CC[C@]3(c4cccc(C#N)c4)CC3C2)C1 (stereo partly drawn),211 nM
15,CC(=O)N1CCC(CN(C(=O)Nc2ccc(F)c(Cl)c2)C2CC[C@]3(c4cccc(C#N)c4)CC3C2)CC1 (stereo partly drawn),312 nM
16,CC(C)N(CCN(C(=O)Nc1cccc(C#N)c1)C1CC[C@]2(c3cccc(C#N)c3)CC2C1)C(C)C (stereo partly drawn),7.6 nM
17,CN(C)Cc1cccc([C@]23CCC(N(CC4CCN(S(C)(=O)=O)CC4)C(=O)Nc4ccc(F)c(Cl)c4)CC2C3)c1 (stereo partly drawn),15 nM
18,CC(C)N(CCN(C(=O)Nc1ccc(F)c(Cl)c1)C1CC[C@]2(c3cccc(C#N)c3)CC2C1)[C@H](C)CO (stereo partly drawn),9.4 nM
19,CC(C)N(CCN(C(=O)Nc1ccc(F)c(Cl)c1)C1CC[C@]2(c3cccc(C#N)c3)CC2C1)[C@@H](C)CO (stereo partly drawn),5.2 nM
20,CC(C)N(CCN(C(=O)Nc1cc(F)cc(F)c1)C1CC[C@]2(c3cccc(C#N)c3)CC2C1)C(C)C (stereo partly drawn),4.5 nM
21,CC(C)N(CCN(C(=O)Nc1ccc(F)c(Cl)c1)C1CC[C@]2(c3cccc(CN4CCN(C)CC4)c3)CC2C1)C(C)C (stereo partly drawn),54 nM

# — ChEMBL document CHEMBL1250483, “Three-dimensional quantitative structure-activity relationship CoMSIA/CoMFA and LeapFrog studies on novel series of bicyclo [4.1.0] heptanes derivatives as melanin-concentrating hormone receptor R1 antagonists” (Eur J Med Chem, 2010)
